Results reported in patent publication US7683040B2, “Intranasal formulation of rotigotine” (SRZ Properties, Inc., priority 2003, dated 2010).

How the values were obtained:
[1] = cited from earlier work
cilia = conditions: cited from earlier work
[2] = comparative storage test in aqueous rotigotine solution with/without α-cyclodextrin; type: physicochemical; conditions: solution of 1.6 mg/ml with α-cyclodextrin, storage at 60° C. for 8 weeks
From the text: The stabilizing effect of α-cyclodextrin becomes also apparent from a comparative test in an aqueous rotigotine solution.

[3] = rat, cited from earlier work
[4] = in-vitro permeation assay through nasal mucosa; type: in vitro ADME, cattle
From the text: The intranasal formulation according to the present invention may preferably further contain a viscosity-enhancing substance. Glycerol and carboxymethylcellulose (CMC) are particularly useful as viscosity enhancers, but the present invention is not limited thereto. Glycerol is particularly preferred as it also has a soothing effect on the nasal mucosa. The viscosity of the intranasal formulations of the present invention should preferably be between 0.8 and 1.5 mm^2/s, most preferably around 1.2 mm^2/s. The viscosity can be determined by an Ubbelohde capillary viscosimeter with suspending ball-level for the determination of kinematic viscosity according to DIN 51562, part 1.
The pH-value of the formulation of the present invention should preferably in the range of 4.5 to 6.5, more preferably around 5.8±0.3. […] The pH value of the intranasal formulation can be adjusted during or after its preparation with a pharmaceutically acceptable acid or base. Most preferably, citric acid is used for this purpose.

[5] = (maximum) solubility in aqueous solution with α- or β-cyclodextrin, isocratic HPLC; type: physicochemical; conditions: aqueous solution and aqueous solutions containing α- or β-cyclodextrin
Experimental: The concentration was determined by isocratic HPLC analysis. HPLC column LiChroCART 75×4 mm, Superspher 60 RP-select B 5 μm (Merck), column temperature: 30° C., mobile phase: water/acetonitrile/methane sulfonic acid (65/35/0.05 v/v/v), flow rate: 2 mL/min, injection volume: 50 μl, detection at 220 nm, retention time approx. 1.5 min. The concentration was determined by use of an external reference solution with known concentration.

CN1CCc2cccc3c2[C@H]1Cc1ccc(O)c(O)c1-3 [apomorphine]
oxidation in solution [1]: subject to rapid oxidation

benzalkonium chloride
ciliary toxicity (cilia): significant ciliary toxicity

CCCN(CCc1cccs1)[C@H]1CCc2c(O)cccc2C1 [Rotigotine base, 5,6,7,8-tetrahydro-6-[propyl-[2-(2-thienyl)ethyl]amino]-1-naphthalenol]
decrease in the rotigotine concentration [2]: -0.07 mg/mL
bioavailability ([3]; buccal, nasal or rectal administration compared with oral dosing, solution in 1:1 PEG 400 and water): improved bioavailability
bioavailability for the nasal dosing ([3]; compared with results described for other lipophilic drugs): somewhat disappointing
rotigotine uptake through nasal mucosa ([4]; formulation pH 4.5): significantly lower rotigotine uptake
drug uptake through nasal mucosa ([4]; formulation pH 5.8): optimal drug uptake
rotigotine uptake through nasal mucosa ([4]; formulation pH 6.5): significantly lower rotigotine uptake
uptake of rotigotine through the nasal mucosa ([4]; glycerol in the formulation): increase the uptake
solubility (in words) [5]: practically insoluble
